Legend:
IL-2 release = details: R,R-glycopyrrolate alone, up to 10 μmol/l; TPA 25 nM / ionomycin 1 μg/ml
Excerpt: (§1) Not only TNFα but also IL-2 plays an important role in inflammatory airway diseases. It is known that in certain forms of asthma (e.g. intrinsic and occupational), particular subsets of T cells produce, among others, IL-2 (Ricci et al.; J Investig Allergol Clin Immunol 1994; 4:214-20). Moreover, allergic patients have special populations of T cells which can be induced to secrete IL-2 (McHugh et al.; Clin Exp Allergy 1993; 23:137-44). […] Therefore, the influence of R,R-glycopyrrolate in combination with cysLT-receptor antagonists on TNFα- and interleukin(IL)-2-release was investigated by using human peripheral blood mononuclear cells (PBMCs). The investigations were approved by the University Ethics Committee according to the International Declarations of Helsinki and Tokyo.
(§2) PBMCs were isolated from heparinized blood samples of healthy donors by density gradient centrifugation. An equal volume of Hanks buffer (Life Technologies, Heidelberg, Germany) is added to heparinized whole blood samples. 15 ml Histopaque-1077 (Sigma, Deisenhofen, Germany) are overlayed with a maximum of 40 ml of blood/Hanks mixture were centrifuged for 30 min at room temperature (2000 rpm). A visible band containing PBMCs is transferred to a fresh tube and washed twice with Hanks-buffer. […]

TNFα release = details: R,R-glycopyrrolate alone, up to 10 μmol/l; LPS 100 ng/ml
Excerpt: as §1, §2

[1] = inhaled; asthmatic subjects (Lammers); cited from earlier work
M3 muscarinic receptors = M3 muscarinic receptors (Homo sapiens, UniProt P20309); details: kinetics studies (Haddad et al.); cited from earlier work
M1-M3 receptors = details: cited from earlier work
[2] = topically into the eyes; allergic conjunctivitis in rats (Papathanassiou et al.); cited from earlier work
IL-2 expression = details: ovalbumin-sensitized Brown Norway rats (Lin et al.); cited from earlier work
[3] = system: chemotactic response in the guinea pig conjunctiva; details: guinea pig conjunctiva (Chan); cited from earlier work
[4] = inhaled; asthmatic subjects (Christie); cited from earlier work
[5] = inhaled; asthmatic subjects (Makker); cited from earlier work

Sequence of M3 muscarinic receptors (P20309 whole entry): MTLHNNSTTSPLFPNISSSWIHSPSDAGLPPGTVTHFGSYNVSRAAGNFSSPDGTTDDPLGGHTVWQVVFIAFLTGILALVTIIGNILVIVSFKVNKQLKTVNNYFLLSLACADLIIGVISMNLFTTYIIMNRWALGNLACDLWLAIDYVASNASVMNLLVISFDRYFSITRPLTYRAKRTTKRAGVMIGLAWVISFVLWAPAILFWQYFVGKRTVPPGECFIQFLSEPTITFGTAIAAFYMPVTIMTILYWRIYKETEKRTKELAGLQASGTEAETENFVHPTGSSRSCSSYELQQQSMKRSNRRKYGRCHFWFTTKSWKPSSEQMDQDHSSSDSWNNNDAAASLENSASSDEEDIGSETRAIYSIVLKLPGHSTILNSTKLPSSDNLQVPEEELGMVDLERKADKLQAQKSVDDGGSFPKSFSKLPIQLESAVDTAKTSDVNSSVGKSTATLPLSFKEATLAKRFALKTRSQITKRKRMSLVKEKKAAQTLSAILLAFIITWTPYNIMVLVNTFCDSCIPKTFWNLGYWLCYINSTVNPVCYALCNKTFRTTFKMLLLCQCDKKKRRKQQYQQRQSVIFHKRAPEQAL

With `C[N+]1(C)CC[C@@H](OC(=O)[C@](O)(c2ccccc2)C2CCCC2)C1.[Br-]` [R,R-glycopyrrolate] the “influence on stimulated IL-2 release” value (IL-2 release) was “had no influence” and the “influence on LPS-induced TNFα release” value (TNFα release) was “did not influence”.
In the case of `CN(C)C(=O)CCS[C@H](SCCC(=O)O)c1cccc(/C=C/c2ccc3ccc(Cl)cc3n2)c1` [verlukast (MK-0679), verlukast], the “mean FEV1” value [1] is listed as “significant improvement”.
For `C[N+]1(C)CCC(OC(=O)C(O)(c2ccccc2)C2CCCC2)C1` (stereo not shown) [Glycopyrrolate], the “dissociation from M3 muscarinic receptors” value (M3 muscarinic receptors) is given as “dissociates slowly” and the “selectivity in binding to the M1-M3 receptors” value (M1-M3 receptors) is given as “no selectivity”.
For `COc1cc(C(=O)NS(=O)(=O)c2ccccc2C)ccc1Cc1cn(C)c2ccc(NC(=O)OC3CCCC3)cc12` [zafirlukast], the “development of symptoms and mediator release” value [2] is given as “effectively inhibit” and the IL-2 expression (IL-2 expression) is given as “able to decrease”.
For `CN(C)C(=O)CCSC(SCCC(=O)O)c1cccc(/C=C/c2ccc3ccc(Cl)cc3n2)c1` (stereo not shown) [MK-571], the “in vivo chemotactic response” value [3] is listed as “completely inhibited”.
In the case of `O=C(O)CCS[C@H](c1ccccc1CCCCCCCCc1ccccc1)[C@@H](O)C(=O)O` [pobilukast (SK&F 104353), pobilukast], the LT induced bronchoconstriction [4] is given as “inhibited significantly”.
For `COc1cc(C(=O)NS(=O)(=O)c2ccccc2C)ccc1Cc1cn(C)c2ccc(NC(=O)OC3CCCC3)cc12` [ICI 204,219], the “protection against exercise-induced bronchoconstriction” value [5] is listed as “protected significantly”.

Reference: patent publication US8268864B2, “Combination of anticholinergics and leukotriene receptor antagonists for the treatment of respiratory diseases” (Meda Pharma GmbH & Co. KG, priority 2005, dated 2012)
